The target of the experiment is E. coli dihydrofolate reductase (DHFR) (Escherichia coli, UniProt P0ABQ4). Kind of experiment: steady-state kinetics dose response. The experiment is classed as biochemical.

For one compound, IC50 results are on record in article PMC8243409 (Journal of chemical information and modeling, 2021).

Chain of E. coli dihydrofolate reductase (DHFR) (P0ABQ4 whole entry): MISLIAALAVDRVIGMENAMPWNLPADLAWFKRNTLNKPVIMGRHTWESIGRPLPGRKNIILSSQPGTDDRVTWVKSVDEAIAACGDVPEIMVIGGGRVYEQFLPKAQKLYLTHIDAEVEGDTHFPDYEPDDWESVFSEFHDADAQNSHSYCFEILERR

In general, IC50 refers to the concentration that gives 50% inhibition. Low values mean inhibition by little substance, high ones a need for much substance. In the case of `COc1cc2c(Nc3ccc(Br)cc3F)ncnc2cc1OCC1CCN(C)CC1` [NSC760766, Vandetanib], the IC50 is ~39 µM.
